Data set [1] deals with human C-terminal FGF23. The data set is described as follows: C-terminal FGF23 (cFGF23) over time, two-site ELISA, trials IDA-04/IDA-05. The format is in vivo. As for the experimental part:
The trial was a randomized, open-label, comparative trial. Subjects with Iron Deficiency Anaemia (IDA) were randomized 1:1 to one treatment course of one of the following treatments: • Group A: iron isomaltoside 1000 (Monofer®, Pharmacosmos, Holbok, Denmark, termed iron isomaltoside in the following), 1000 mg at baseline • Group B: ferric carboxymaltose (Ferinject®/Injectafer®, Vifor Inc, Switzerland), 750 mg at baseline and day 7, cumulative dose: 1500 mg […]
The following safety laboratory assessments were analysed: • S-phosphate: inorganic phosphorous forms an ammonium phosphomolybdate complex having the formula (NH4)3[PO4](MoO3)12 with ammonium molybdate in the presence of sulfuric acid. The complex was determined photometrically in the ultraviolet region (340 nm) of the spectrum using the Roche Modular and Cobas Analyzer. • iFGF23 and cFGF23: the human intact FGF23 was measured by the 2nd generation Elisa kit manufactured by Immonotropics, Inc, San Clemente, CA. […] The human C-terminal FGF23 was measured by the Elisa kit manufactured by Immonotropics, Inc, San Clemente, CA. […] After evaporation under nitrogen, the residue was reconstituted and analyzed using Liquid Chromatography (LC) with Tandem Mass Spectrometric detection (MS/MS). […]
Background: ELISA stands for enzyme-linked immunosorbent assay.

Data set [2] concerns ionized calcium. The data set is described as follows: Ionized calcium, ion-selective electrode, trials IDA-04/IDA-05. Particulars: IDA-04 and IDA-05 combined. The format is in vivo, human. The text has this:
The term “serum ionized calcium” as used herein refers to the level of calcium ions (Ca^2+) in blood serum as measured using the IL GEM Premier 3500 PAK cartridge. The central component is the sensor card, which provides a low volume, gas tight chamber in which the blood sample is presented to the sensors. The pH and electrolyte sensors are all based on the principle of ion-selective electrodes; that is, an electrical potential can be established across a membrane which is selectively permeable to a specific ion. The pH and electrolyte sensors are polyvinyl chloride (PVC) based ion selective electrodes, consisting of an internal Ag/AgCl reference electrode and internal salt layer. The potentials are measured against the card reference electrode. […]
The following safety laboratory assessments were analysed: • S-phosphate: inorganic phosphorous forms an ammonium phosphomolybdate complex having the formula (NH4)3[PO4](MoO3)12 with ammonium molybdate in the presence of sulfuric acid. The complex was determined photometrically in the ultraviolet region (340 nm) of the spectrum using the Roche Modular and Cobas Analyzer. • iFGF23 and cFGF23: the human intact FGF23 was measured by the 2nd generation Elisa kit manufactured by Immonotropics, Inc, San Clemente, CA. […] The human C-terminal FGF23 was measured by the Elisa kit manufactured by Immonotropics, Inc, San Clemente, CA. […]

The subject of data set [3] is intact FGF23. To be noted: women with IDA secondary to heavy uterine bleeding; Wolf et al., 2013; cited from earlier work.

Take ferric carboxymaltose [FCM]: the “cFGF23 on the first administration” value in data set [1] (initially high due to underlying iron deficiency anemia) is “dropped sharply”. Further, the “cFGF23 on the second administration” value in data set [1] (second administration (day 7)) was “increased”. In addition, the ionized calcium entry in data set [2] is reported as “decrease”. The iFGF23 levels result in data set [3] is on record as “temporarily increased”.

The values are drawn from patent US20260091015A1, “TREATING IRON DEFICIENCY WITH FERRIC CARBOXYMALTOSE” (PHARMACOSMOS HOLDING A/S, priority 2018, published 2026).
